# Source: the supplement of paper PMC10307832
# Legend:
# Test in all cases: relative viability (nuclei count vs DMSO), 5 days (fraction); higher = more cells survive
# [1] = compound: CC(C)C[C@H](NC(=O)[C@H](CCc1ccccc1)NC(=O)CN1CCOCC1)C(=O)N[C@@H](Cc1ccccc1)C(=O)N[C@@H](CC(C)C)C(=O)[C@@]1(C)CO1 [Carfilzomib] + COc1cc2c(Oc3ccc(NC(=O)C4(C(=O)Nc5ccc(F)cc5)CC4)cc3F)ccnc2cc1OCCCN1CCOCC1 [Foretinib] (partner 0.25 µM)
# Summary of the method: (§1)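 The day after seeding in 1536-well plates, lung cancer cell lines were treated by pin tool with a single drug, or with a fixed anchor-drug dose together with five library-drug doses (not always all listed) in √10 steps. After 5 days, a combined fix-and-stain solution (final 0.05% Triton X-100, 1% formaldehyde, 1 ug/ml Hoechst) was added. Nuclei counted on 4× images gave relative viability as treated counts over vehicle counts, reported as the median of duplicate plates.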
# [2] = compound: CC(C)C[C@H](NC(=O)[C@H](CCc1ccccc1)NC(=O)CN1CCOCC1)C(=O)N[C@@H](Cc1ccccc1)C(=O)N[C@@H](CC(C)C)C(=O)[C@@]1(C)CO1 [Carfilzomib] + Cc1cc(Nc2cc(N3CCN(C)CC3)nc(Sc3ccc(NC(=O)C4CC4)cc3)n2)n[nH]1 [Tozasertib] (partner 0.1 µM)
# Summary of the method: as §1
# [3] = compound: CC(C)C[C@H](NC(=O)[C@H](CCc1ccccc1)NC(=O)CN1CCOCC1)C(=O)N[C@@H](Cc1ccccc1)C(=O)N[C@@H](CC(C)C)C(=O)[C@@]1(C)CO1 [Carfilzomib] + Nc1nc2[nH]cc(CCc3ccc(C(=O)N[C@@H](CCC(=O)O)C(=O)O)cc3)c2c(=O)[nH]1 [Pemetrexed] (partner 0.2 µM)
# Summary of the method: as §1
# [4] = compound: C[C@@H](Oc1cc(-c2cnn(C3CCNCC3)c2)cnc1N)c1c(Cl)ccc(F)c1Cl [Crizotinib] + CC(C)C[C@H](NC(=O)[C@H](Cc1ccccc1)NC(=O)c1cnccn1)B(O)O [Bortezomib] (partner 0.002 µM)
# Summary of the method: as §1
Cell Line,relative viability ([1]; first compound 0.003162 µM),relative viability ([1]; first compound 0.01 µM),relative viability ([1]; first compound 0.03162 µM),relative viability ([1]; first compound 0.1 µM),relative viability ([2]; first compound 0.003162 µM),relative viability ([2]; first compound 0.01 µM),relative viability ([2]; first compound 0.03162 µM),relative viability ([2]; first compound 0.1 µM),relative viability ([3]; first compound 0.001 µM),relative viability ([3]; first compound 0.003162 µM),relative viability ([3]; first compound 0.01 µM),relative viability ([3]; first compound 0.03162 µM),relative viability ([3]; first compound 0.1 µM),relative viability ([4]; first compound 0.01 µM),relative viability ([4]; first compound 0.03162 µM),relative viability ([4]; first compound 0.1 µM),relative viability ([4]; first compound 0.3162 µM),relative viability ([4]; first compound 1 µM),relative viability ([1]; first compound 0.001 µM),relative viability ([2]; first compound 0.001 µM)
NCI-H1975,0.859,0.621,0.0974,0.104,0.766,0.371,0.0617,0.0846,0.281,0.31,0.224,0.123,0.115,0.317,0.362,0.315,0.373,0.404,–,–
NCI-H1993,0.865,0.81,0.778,0.444,0.571,0.59,0.597,0.423,0.593,0.502,0.574,0.518,0.351,0.937,1.05,0.833,0.899,0.76,0.798,0.563
NCI-H2009,1.26,1.21,0.355,0.0701,0.871,0.723,0.748,0.0938,1.06,1.05,1.04,0.868,0.124,0.896,1.04,1.09,0.837,0.96,1.25,0.781
NCI-H2023,0.896,0.894,0.948,0.0777,0.399,0.352,0.285,0.0853,0.237,0.247,0.227,0.141,0.0695,0.813,0.964,0.88,0.647,0.806,0.957,0.433
NCI-H2085,0.925,0.829,0.249,0.226,0.828,0.786,0.269,0.385,0.784,0.941,0.968,0.54,0.301,0.995,1.22,1.07,1.02,1.02,0.909,0.825
NCI-H2087,1.15,0.693,0.0563,0.0605,0.236,0.239,0.0397,0.0474,0.624,0.656,0.57,0.0837,0.0365,0.773,1.12,0.952,0.685,0.808,1.03,0.264
NCI-H2126,1.3,1.2,1.12,0.48,0.926,0.936,0.777,0.408,0.612,0.702,0.678,0.617,0.424,1.04,1.13,1.2,–,1.16,1.2,0.904
NCI-H2228,0.883,0.633,0.0979,0.096,0.27,0.289,0.096,0.103,0.316,0.364,0.361,0.0862,0.143,0.84,0.874,0.833,0.647,0.346,0.902,0.3
